# Assays:
# Assay type in all cases: in vivo
# [1] = system: foxtail, giant (giant foxtail, Setaria faberii); assay: Test C postemergence, plant response rating; settings: Setaria faberi, post-emergence
# Method in brief: (§1)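 Visual injury score, 0 = no effect, 100 = complete control, assigned against untreated controls after 13 to 15 d in the greenhouse. Compounds were applied in a surfactant-containing non-phytotoxic solvent mix, preemergence to seeded loam/sand or silt loam soil, or postemergence to 1- to 4-leaf plants (2 to 18 cm).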
# [2] = system: chickweed (common chickweed, Stellaria media); assay: Test C postemergence, plant response rating; settings: Stellaria media, post-emergence
# Method in brief: as §1
# [3] = system: morningglory (Ipomoea coccinea); assay: Test C postemergence, plant response rating; settings: Ipomoea, post-emergence
# Method in brief: as §1
# rice (Oryza sativa) = assay: Test B flooded paddy test, plant response rating; settings: Oryza sativa, 312 h; 250 g ai/ha; Flood; scale of 0 to 100 where 0 is no effect and 100 is complete control; 13 to 15 days
# Method in brief: (§2)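 Test compounds are applied straight into paddy water held 3 cm above the soil surface, with that flood maintained for the whole test. After 13 to 15 days in the greenhouse, each species is scored visually relative to controls.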
# [4] = system: ducksalad (Heteranthera limosa); assay: Test B flooded paddy test, plant response rating; settings: Heteranthera limosa, 312 h; 250 g ai/ha; Flood; scale of 0 to 100 where 0 is no effect and 100 is complete control; 13 to 15 days
# Method in brief: as §2
# [5] = system: sedge, umbrella (small-flower umbrella sedge, Cyperus difformis); assay: Test B flooded paddy test, plant response rating; settings: Cyperus difformis, 312 h; 250 g ai/ha; Flood; scale of 0 to 100 where 0 is no effect and 100 is complete control; 13 to 15 days
# Method in brief: as §2
# [6] = system: barnyardgrass (Echinochloa crus-galli); assay: Test B flooded paddy test, plant response rating; settings: Echinochloa crus-galli, 312 h; 250 g ai/ha; Flood; scale of 0 to 100 where 0 is no effect and 100 is complete control; 13 to 15 days
# Method in brief: as §2
# [7] = system: foxtail, giant (giant foxtail, Setaria faberii); assay: Test C preemergence, plant response rating; settings: Setaria faberi, pre-emergence, Preemergence
# Method in brief: as §1
# [8] = system: waterhemp (common waterhemp, Amaranthus rudis); assay: Test C preemergence, plant response rating; settings: Amaranthus tuberculatus, pre-emergence, Preemergence
# Method in brief: as §1
# [9] = system: nutsedge, yellow (yellow nutsedge, Cyperus esculentus); assay: Test C preemergence, plant response rating; settings: Cyperus, pre-emergence, Preemergence
# Method in brief: as §1
# [10] = system: crabgrass, large (large crabgrass, Digitaria sanguinalis); assay: Test C preemergence, plant response rating; settings: Digitaria sanguinalis, pre-emergence, Preemergence
# Method in brief: as §1
# corn (Zea mays) = assay: Test C preemergence, plant response rating; settings: Zea mays, pre-emergence, Preemergence
# Method in brief: as §1
# [11] = system: wheat (winter wheat, Triticum aestivum); assay: Test C preemergence, plant response rating; settings: Triticum aestivum, pre-emergence, Preemergence
# Method in brief: as §1
# soybean (Glycine max) = assay: Test C preemergence, plant response rating; settings: Glycine max, pre-emergence, Preemergence
# Method in brief: as §1
# [12] = system: oilseed rape (Brassica napus); assay: Test C preemergence, plant response rating; settings: Brassica napus, pre-emergence, Preemergence
# Method in brief: as §1
# [13] = system: lambsquarters (Chenopodium album); assay: Test C preemergence, plant response rating; settings: Chenopodium album, pre-emergence, Preemergence
# Method in brief: as §1
# [14] = system: morningglory (Ipomoea coccinea); assay: Test C preemergence, plant response rating; settings: Ipomoea, pre-emergence, Preemergence
# Method in brief: as §1
# [15] = system: velvetleaf (Abutilon theophrasti); assay: Test C preemergence, plant response rating; settings: Abutilon theophrasti, pre-emergence, Preemergence
# Method in brief: as §1
# [16] = system: ryegrass, Italian (Italian ryegrass, Lolium multiflorum); assay: Test C preemergence, plant response rating; settings: Lolium multiflorum, pre-emergence, Preemergence
# Method in brief: as §1
# [17] = system: ragweed (common ragweed, Ambrosia elatior); assay: Test C preemergence, plant response rating; settings: Ambrosia artemisiifolia, pre-emergence, Preemergence
# Method in brief: as §1
# [18] = system: blackgrass (Alopecurus myosuroides); assay: Test C preemergence, plant response rating; settings: Alopecurus myosuroides, pre-emergence, Preemergence
# Method in brief: as §1
# [19] = 62 g ai/ha, scale 0 to 100 (0 no effect, 100 complete control)
# [20] = 125 g ai/ha, scale 0 to 100 (0 no effect, 100 complete control)
smiles,measurement,setting,value
"C=CCCOC(=O)c1c(Br)cccc1Oc1ncc(Cl)cn1 [Compound 21, 3-buten-1-yl 2-bromo-6-[(5-chloro-2-pyrimidinyl)oxy]benzoate]",pest or weed control at 16 g/ha,"[1]; 16 g ai/ha, scale 0 to 100",10%
same,pest or weed control at 31 g/ha,"[1]; 31 g ai/ha, scale 0 to 100",10%
same,pest or weed control at 62 g/ha,[1]; [19],20%
same,pest or weed control at 125 g/ha,[1]; [20],15%
same,pest or weed control at 16 g/ha,"[2]; 16 g ai/ha, scale 0 to 100",40%
same,pest or weed control at 31 g/ha,"[2]; 31 g ai/ha, scale 0 to 100",50%
same,pest or weed control at 62 g/ha,[2]; [19],50%
same,pest or weed control at 125 g/ha,[2]; [20],80%
same,pest or weed control at 16 g/ha,"[3]; 16 g ai/ha, scale 0 to 100",10%
same,pest or weed control at 31 g/ha,"[3]; 31 g ai/ha, scale 0 to 100",25%
same,pest or weed control at 62 g/ha,[3]; [19],40%
same,pest or weed control at 125 g/ha,[3]; [20],70%
same,plant injury at 250 g/ha,rice (Oryza sativa),0%
same,pest or weed control at 250 g/ha,[4],70%
same,pest or weed control at 250 g/ha,[5],100%
same,pest or weed control at 250 g/ha,[6],30%
same,pest or weed control at 62 g/ha,"[7]; 62 g ai/ha, scale of 0 to 100",95%
same,pest or weed control at 125 g/ha,"[7]; 125 g ai/ha, scale of 0 to 100",90%
same,pest or weed control at 16 g/ha,"[7]; 16 g ai/ha, scale 0 to 100",20%
same,pest or weed control at 31 g/ha,"[7]; 31 g ai/ha, scale 0 to 100",80%
same,pest or weed control at 125 g/ha,"[8]; 125 g ai/ha, scale of 0 to 100",98%
same,pest or weed control at 16 g/ha,"[8]; 16 g ai/ha, scale 0 to 100",70%
same,pest or weed control at 31 g/ha,"[8]; 31 g ai/ha, scale 0 to 100",75%
same,pest or weed control at 62 g/ha,"[8]; 62 g ai/ha, scale 0 to 100",95%
same,pest or weed control at 125 g/ha,"[9]; 125 g ai/ha, scale of 0 to 100",0%
same,pest or weed control at 16 g/ha,"[9]; 16 g ai/ha, scale 0 to 100",0%
same,pest or weed control at 31 g/ha,"[9]; 31 g ai/ha, scale 0 to 100",0%
same,pest or weed control at 62 g/ha,"[9]; 62 g ai/ha, scale 0 to 100",0%
same,pest or weed control at 62 g/ha,"[10]; 62 g ai/ha, scale of 0 to 100",98%
same,pest or weed control at 125 g/ha,"[10]; 125 g ai/ha, scale of 0 to 100",100%
same,pest or weed control at 16 g/ha,"[10]; 16 g ai/ha, scale 0 to 100",20%
same,pest or weed control at 31 g/ha,"[10]; 31 g ai/ha, scale 0 to 100",75%
same,"Corn plant response rating (crop injury, 0 = no effect, 100 = complete kill) at 62 g/ha","corn (Zea mays); 62 g ai/ha, scale of 0 to 100",5%
same,"Corn plant response rating (crop injury, 0 = no effect, 100 = complete kill) at 125 g/ha","corn (Zea mays); 125 g ai/ha, scale of 0 to 100",20%
same,"Corn plant response rating (crop injury, 0 = no effect, 100 = complete kill) at 16 g/ha","corn (Zea mays); 16 g ai/ha, scale 0 to 100",0%
same,"Corn plant response rating (crop injury, 0 = no effect, 100 = complete kill) at 31 g/ha","corn (Zea mays); 31 g ai/ha, scale 0 to 100",0%
same,plant injury at 125 g/ha,"[11]; 125 g ai/ha, scale of 0 to 100",0%
same,plant injury at 16 g/ha,"[11]; 16 g ai/ha, scale 0 to 100",0%
same,plant injury at 31 g/ha,"[11]; 31 g ai/ha, scale 0 to 100",0%
same,plant injury at 62 g/ha,"[11]; 62 g ai/ha, scale 0 to 100",0%
same,plant injury at 125 g/ha,"soybean (Glycine max); 125 g ai/ha, scale of 0 to 100",0%
same,plant injury at 16 g/ha,"soybean (Glycine max); 16 g ai/ha, scale 0 to 100",0%
same,plant injury at 31 g/ha,"soybean (Glycine max); 31 g ai/ha, scale 0 to 100",0%
same,plant injury at 62 g/ha,"soybean (Glycine max); 62 g ai/ha, scale 0 to 100",0%
same,plant injury at 125 g/ha,"[12]; 125 g ai/ha, scale of 0 to 100",100%
same,plant injury at 16 g/ha,"[12]; 16 g ai/ha, scale 0 to 100",0%
same,plant injury at 31 g/ha,"[12]; 31 g ai/ha, scale 0 to 100",0%
same,plant injury at 62 g/ha,"[12]; 62 g ai/ha, scale 0 to 100",75%
same,pest or weed control at 125 g/ha,"[13]; 125 g ai/ha, scale of 0 to 100",70%
same,pest or weed control at 16 g/ha,"[13]; 16 g ai/ha, scale 0 to 100",0%
same,pest or weed control at 31 g/ha,"[13]; 31 g ai/ha, scale 0 to 100",30%
same,pest or weed control at 62 g/ha,"[13]; 62 g ai/ha, scale 0 to 100",25%
same,pest or weed control at 125 g/ha,"[14]; 125 g ai/ha, scale of 0 to 100",10%
same,pest or weed control at 16 g/ha,"[14]; 16 g ai/ha, scale 0 to 100",0%
same,pest or weed control at 31 g/ha,"[14]; 31 g ai/ha, scale 0 to 100",0%
same,pest or weed control at 62 g/ha,"[14]; 62 g ai/ha, scale 0 to 100",5%
same,pest or weed control at 125 g/ha,"[15]; 125 g ai/ha, scale of 0 to 100",100%
same,pest or weed control at 16 g/ha,"[15]; 16 g ai/ha, scale 0 to 100",10%
same,pest or weed control at 31 g/ha,"[15]; 31 g ai/ha, scale 0 to 100",40%
same,pest or weed control at 62 g/ha,"[15]; 62 g ai/ha, scale 0 to 100",70%
same,pest or weed control at 125 g/ha,"[16]; 125 g ai/ha, scale of 0 to 100",90%
same,pest or weed control at 16 g/ha,"[16]; 16 g ai/ha, scale 0 to 100",0%
same,pest or weed control at 31 g/ha,"[16]; 31 g ai/ha, scale 0 to 100",10%
same,pest or weed control at 62 g/ha,"[16]; 62 g ai/ha, scale 0 to 100",15%
same,pest or weed control at 125 g/ha,"[17]; 125 g ai/ha, scale of 0 to 100",0%
same,pest or weed control at 16 g/ha,"[17]; 16 g ai/ha, scale 0 to 100",0%
same,pest or weed control at 31 g/ha,"[17]; 31 g ai/ha, scale 0 to 100",0%
same,pest or weed control at 62 g/ha,"[17]; 62 g ai/ha, scale 0 to 100",0%
same,pest or weed control at 62 g/ha,"[18]; 62 g ai/ha, scale of 0 to 100",55%
same,pest or weed control at 125 g/ha,"[18]; 125 g ai/ha, scale of 0 to 100",90%
same,pest or weed control at 16 g/ha,"[18]; 16 g ai/ha, scale 0 to 100",5%
same,pest or weed control at 31 g/ha,"[18]; 31 g ai/ha, scale 0 to 100",35%
